Data: patent US10258602B2 (Ocera Therapeutics, Inc., priority 2007, dated 2019)
Where two headings read alike, the source gives them in different places.

Tests used:
CYP2C19 = target: T1, CYP2C19 (Homo sapiens, UniProt P33261); assay: Cytochrome P450 inhibition, CYP2C19; type: in vitro ADME; conditions: read-out: IC50 2C19
T1 construct: purchased BD Gentest, Becton-Dickinson (Supersomes); host or cells: insect cells
Excerpt: (§1) K. Assay for Cytochrome P450 Inhibition
(§2) Cytochrome P450 enzymes are implicated in the phase I metabolism of drugs. The majority of drug-drug interactions are metabolism-based and, moreover, these interactions typically involve inhibition of cytochrome P450s. Six CYP450 enzymes (CYP1A2, CYP2C8, CYP2C9, CYP2C19, CYP2D6 and CYP3A4) appear to be commonly responsible for the metabolism of most drugs and the associated drug-drug interactions. Assays to determine the binding of compounds of the invention to the various metabolically important isoforms of cytochrome P450 metabolizing enzymes are commercially available, for example NoAb BioDiscoveries (Mississaugua, ON, Canada) and Absorption Systems (Exton, Pa., USA). As well, a number of appropriate methods have been described or reviewed in the literature. (White, R. E. Ann. Rev. Pharmacol. Toxicol. 2000, 40, 133-157; Li, A. P. Drug. Disc. Today 2001, 6, 357-366; Turpeinen, M.; Korhonen, L. E. Tolonen, A.; et al. Eur. J. Pharm. Sci, 2006, 29, 130-138.)
(§3) The key aspects of the experimental method were as follows: • 1. […] Assays monitored, via fluorescence detection, the formation of a fluorescent metabolite following incubation of the microsomes with a specific CYP substrate. • 3. Compounds of the present invention were tested in duplicate samples at eight test concentrations using 3-fold serial dilutions (concentration range of 0.0457 to 100 μM). • 4. For each CYP-450 enzyme, a specific inhibitor was tested in duplicate at eight concentrations as a positive control. • 5. The concentration of the inhibitor or test compound that inhibited metabolite formation by 50% (IC50) was calculated by non-linear regression analysis of the % inhibition vs. log concentration (M) curve.

CYP2D6 = target: T2, CYP2D6 (Homo sapiens, UniProt P10635); assay: Cytochrome P450 inhibition, CYP2D6; type: in vitro ADME; conditions: read-out: IC50 2D6
T2 construct: purchased BD Gentest, Becton-Dickinson (Supersomes); host or cells: insect cells
T2 sequence (P10635 whole entry): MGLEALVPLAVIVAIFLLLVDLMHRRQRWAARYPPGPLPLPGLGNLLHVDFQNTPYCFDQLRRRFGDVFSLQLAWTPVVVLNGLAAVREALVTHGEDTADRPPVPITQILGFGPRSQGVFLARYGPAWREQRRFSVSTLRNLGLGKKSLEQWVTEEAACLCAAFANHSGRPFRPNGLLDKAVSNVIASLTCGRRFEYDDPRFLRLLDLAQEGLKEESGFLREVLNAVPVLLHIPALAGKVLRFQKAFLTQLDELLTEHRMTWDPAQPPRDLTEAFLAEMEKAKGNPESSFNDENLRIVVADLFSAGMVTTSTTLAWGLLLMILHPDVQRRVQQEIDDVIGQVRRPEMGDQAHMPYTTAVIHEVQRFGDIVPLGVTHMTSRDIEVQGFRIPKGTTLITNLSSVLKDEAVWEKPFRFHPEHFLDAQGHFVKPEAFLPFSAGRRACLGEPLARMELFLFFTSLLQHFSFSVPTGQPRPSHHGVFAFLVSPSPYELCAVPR
Excerpt: as §1, §2, §3

CYP2E1 = target: T3, CYP2E1 (Homo sapiens, UniProt P05181); assay: Cytochrome P450 inhibition, CYP2E1; type: in vitro ADME; conditions: read-out: IC50 2E1
T3 construct: purchased BD Gentest, Becton-Dickinson (Supersomes); host or cells: insect cells
T3 sequence (P05181 whole entry): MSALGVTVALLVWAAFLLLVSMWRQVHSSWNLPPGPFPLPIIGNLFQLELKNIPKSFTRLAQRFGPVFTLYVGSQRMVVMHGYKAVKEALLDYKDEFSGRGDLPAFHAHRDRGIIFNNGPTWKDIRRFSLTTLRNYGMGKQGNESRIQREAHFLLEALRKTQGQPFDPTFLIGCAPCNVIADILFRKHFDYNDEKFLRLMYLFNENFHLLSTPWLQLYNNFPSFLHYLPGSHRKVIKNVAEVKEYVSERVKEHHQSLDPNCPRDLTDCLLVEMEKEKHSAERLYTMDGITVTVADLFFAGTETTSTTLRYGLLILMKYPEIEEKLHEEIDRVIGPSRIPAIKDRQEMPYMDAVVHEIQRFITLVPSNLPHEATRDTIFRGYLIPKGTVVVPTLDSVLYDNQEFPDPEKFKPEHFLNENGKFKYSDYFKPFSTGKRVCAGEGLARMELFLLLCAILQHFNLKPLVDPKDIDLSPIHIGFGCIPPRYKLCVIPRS
Excerpt: as §1, §2, §3

human plasma = assay: Plasma protein binding, human plasma (equilibrium dialysis); type: in vitro ADME
How it was run: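 Human plasma incubated with test article at several concentrations for 60 min at 37° C. Bound and unbound fractions separated by equilibrium dialysis; unbound concentration quantified by LC-MS or LC-MS-MS.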

CYP2C9 = target: T4, CYP2C9 (Homo sapiens, UniProt P11712); assay: Cytochrome P450 inhibition, CYP2C9; type: in vitro ADME; conditions: read-out: IC50 2C9
T4 construct: purchased BD Gentest, Becton-Dickinson (Supersomes); host or cells: insect cells
T4 sequence (P11712 whole entry): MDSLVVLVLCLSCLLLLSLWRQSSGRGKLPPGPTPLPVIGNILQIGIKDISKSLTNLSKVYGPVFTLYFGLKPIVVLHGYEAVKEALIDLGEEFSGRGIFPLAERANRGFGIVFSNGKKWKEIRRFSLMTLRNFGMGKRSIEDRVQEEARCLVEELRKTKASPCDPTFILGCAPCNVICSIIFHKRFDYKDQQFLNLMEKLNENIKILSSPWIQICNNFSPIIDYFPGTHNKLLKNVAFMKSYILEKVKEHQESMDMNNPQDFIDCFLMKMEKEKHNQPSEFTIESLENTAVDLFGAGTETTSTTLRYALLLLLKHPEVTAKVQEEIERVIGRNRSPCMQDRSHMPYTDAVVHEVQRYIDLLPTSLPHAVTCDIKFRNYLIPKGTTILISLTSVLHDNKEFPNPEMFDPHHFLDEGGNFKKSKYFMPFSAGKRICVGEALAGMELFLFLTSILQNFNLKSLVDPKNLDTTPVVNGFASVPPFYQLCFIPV
Excerpt: as §1, §2, §3

CYP1A2 = target: T5, CYP1A2 (Homo sapiens, UniProt P05177); assay: Cytochrome P450 inhibition, CYP1A2; type: in vitro ADME; conditions: read-out: IC50 1A2
T5 construct: purchased BD Gentest, Becton-Dickinson (Supersomes); host or cells: insect cells
T5 sequence (P05177 1-516): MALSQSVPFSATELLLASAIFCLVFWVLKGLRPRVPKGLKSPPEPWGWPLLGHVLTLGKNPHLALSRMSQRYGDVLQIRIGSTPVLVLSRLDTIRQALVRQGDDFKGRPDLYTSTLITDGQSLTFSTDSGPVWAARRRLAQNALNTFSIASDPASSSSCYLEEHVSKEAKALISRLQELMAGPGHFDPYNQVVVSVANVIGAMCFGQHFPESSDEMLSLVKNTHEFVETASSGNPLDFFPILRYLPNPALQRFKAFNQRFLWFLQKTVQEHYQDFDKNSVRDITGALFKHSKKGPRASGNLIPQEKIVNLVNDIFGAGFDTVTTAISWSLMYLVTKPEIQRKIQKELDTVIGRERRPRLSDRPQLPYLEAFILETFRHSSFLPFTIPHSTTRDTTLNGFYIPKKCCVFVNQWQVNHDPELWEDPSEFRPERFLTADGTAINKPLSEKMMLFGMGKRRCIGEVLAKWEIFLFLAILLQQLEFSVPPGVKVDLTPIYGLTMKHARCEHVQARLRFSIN
Excerpt: as §1, §2, §3

[1] = target: human growth hormone secretagogue receptor (hGHS-R1a) (Homo sapiens, UniProt Q92847); assay: Competitive radioligand binding assay (ghrelin receptor), standard method A
human growth hormone secretagogue receptor (hGHS-R1a), sequence (Q92847 whole entry): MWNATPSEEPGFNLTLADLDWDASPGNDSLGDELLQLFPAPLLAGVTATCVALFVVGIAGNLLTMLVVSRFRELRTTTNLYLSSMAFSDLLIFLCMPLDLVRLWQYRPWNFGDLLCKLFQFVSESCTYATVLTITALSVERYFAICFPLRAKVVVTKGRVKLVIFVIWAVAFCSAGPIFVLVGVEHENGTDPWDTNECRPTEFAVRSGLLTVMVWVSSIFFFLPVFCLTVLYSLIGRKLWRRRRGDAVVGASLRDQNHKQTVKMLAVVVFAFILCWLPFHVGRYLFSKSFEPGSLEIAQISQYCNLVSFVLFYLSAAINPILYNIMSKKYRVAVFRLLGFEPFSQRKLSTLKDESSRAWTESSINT

fasted rats = assay: Gastric emptying in fasted rat model, standard method E; type: in vivo; conditions: for Percent Increase in Gastric Emptying After Oral Administration: average where repeated
How it was run: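 Overnight-fasted male Wistar rats (200 g, n=5/group) received a 2 mL 2% methylcellulose meal labelled with 0.05% phenol red by gavage, then oral test article (typically 1–30 mg/kg) at t=0. At 15 min, stomach phenol red was measured colorimetrically at 560 nm; ≥30% increase in emptying vs vehicle deemed significant (ANOVA/Dunnett).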

[2] = binding activity at the human ghrelin receptor, standard method A

T1 sequence (P33261 whole entry): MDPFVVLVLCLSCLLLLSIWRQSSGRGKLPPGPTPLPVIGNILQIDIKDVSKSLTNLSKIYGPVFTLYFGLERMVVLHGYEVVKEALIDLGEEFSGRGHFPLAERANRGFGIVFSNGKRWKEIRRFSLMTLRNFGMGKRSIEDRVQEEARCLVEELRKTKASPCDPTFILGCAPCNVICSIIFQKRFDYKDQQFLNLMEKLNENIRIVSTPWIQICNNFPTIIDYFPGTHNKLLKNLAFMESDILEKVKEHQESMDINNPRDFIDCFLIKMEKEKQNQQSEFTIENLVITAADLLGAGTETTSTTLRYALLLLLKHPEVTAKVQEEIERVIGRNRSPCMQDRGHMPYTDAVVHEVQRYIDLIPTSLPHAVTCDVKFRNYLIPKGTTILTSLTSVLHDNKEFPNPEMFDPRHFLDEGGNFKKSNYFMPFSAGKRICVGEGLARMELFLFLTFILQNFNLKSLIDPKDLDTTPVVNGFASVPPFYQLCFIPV

| Compound | IC50 (CYP2C19) | IC50 (CYP2D6) | IC50 (CYP2E1) | IC50 (CYP2C9) | IC50 (CYP1A2) | Human Plasma Protein Binding (%) (human plasma; test concentration 5 μg/mL) | Ki [1] | Human Plasma Protein Binding (%) (human plasma; test concentration 1 μg/mL) | Ki [1, 2] | Percent Increase in Gastric Emptying After Oral Administration (fasted rats; dose 1 mg/kg) | Percent Increase in Gastric Emptying After Oral Administration (fasted rats; dose 3 mg/kg) | Percent Increase in Gastric Emptying After Oral Administration (fasted rats; dose 10 mg/kg) | gastric emptying rates remained increased (fasted rats; oral, up to 24 h post-dose) | Human Plasma Protein Binding (%) (human plasma; test concentration 3 μg/mL) |
| --- | --- | --- | --- | --- | --- | --- | --- | --- | --- | --- | --- | --- | --- | --- |
| C[C@@H]1C(=O)N[C@H](Cc2ccc(O)cc2)C(=O)NCCCc2cccc3c2O[C@H](CC3)CN[C@@H](C2CC2)C(=O)N1C [Compound 803] | > 100 µM | > 100 µM | > 100 µM | > 100 µM | > 100 µM | – | – | 97.8% | ≤ 100 nM | – | – | – | – | – |
| CC(C)CC1NC(=O)C(C)N(C)C(=O)C(C2CC2)NCC(C)OC2CCCCC2CCCNC1=O (mixture of isomers) [Compound 825] | > 100 µM | > 100 µM | > 100 µM | > 100 µM | > 100 µM | 70% | – | 83% | ≤ 10 nM | – | – | – | – | – |
| CC1CNC(C2CC2)C(=O)N(C)C(C)C(=O)NC(Cc2ccc(O)cc2)C(=O)NCCCC2CCCCC2O1 (mixture of isomers) [Compound 826] | > 100 µM | > 100 µM | > 100 µM | > 100 µM | > 100 µM | – | – | – | ≤ 100 nM | 19% | 12% | 30% | – | 94.3% |
| C[C@@H]1C(=O)N[C@H](Cc2ccc(O)cc2)C(=O)NCCCc2ccc(F)cc2OCCN[C@@H](C2CC2)C(=O)N1C [Compound 809] | > 100 µM | > 100 µM | > 100 µM | > 100 µM | > 100 µM | – | – | – | ≤ 100 nM | – | 5% | – | – | 88.4% |
| CC1NC(C2CC2)C(=O)N(C)C(C)C(=O)NC(Cc2ccc(O)cc2)C(=O)NCCCc2ccccc2OC1C (stereo not shown) [Compound 820] | > 100 µM | > 100 µM | > 100 µM | > 100 µM | > 100 µM | – | – | – | ≤ 100 nM | 6% | 20% | 22% | – | 99.0% |
| CC(C)CC1NC(=O)C(C)N(C)C(=O)C(C2CCCCC2)NCC(C)OC2CCCCC2CCCNC1=O (mixture of isomers) [Compound 828] | > 100 µM | > 100 µM | > 100 µM | > 100 µM | > 100 µM | – | – | – | ≤ 1 nM | – | 24% | – | – | 76.8% |

Second part, led by results:

| IC50 (CYP2C19) | IC50 (CYP2D6) | IC50 (CYP2E1) | IC50 (CYP2C9) | IC50 (CYP1A2) | Human Plasma Protein Binding (%) (human plasma; test concentration 5 μg/mL) | Ki [1] | Compound | Human Plasma Protein Binding (%) (human plasma; test concentration 1 μg/mL) | Ki [1, 2] | Percent Increase in Gastric Emptying After Oral Administration (fasted rats; dose 1 mg/kg) | Percent Increase in Gastric Emptying After Oral Administration (fasted rats; dose 3 mg/kg) | Percent Increase in Gastric Emptying After Oral Administration (fasted rats; dose 10 mg/kg) | gastric emptying rates remained increased (fasted rats; oral, up to 24 h post-dose) | Human Plasma Protein Binding (%) (human plasma; test concentration 3 μg/mL) |
| --- | --- | --- | --- | --- | --- | --- | --- | --- | --- | --- | --- | --- | --- | --- |
| > 100 µM | > 100 µM | > 100 µM | > 100 µM | > 100 µM | – | ≤ 10 nM | CC(C)C[C@H]1NC(=O)[C@@H](C)N(C)C(=O)[C@H](C2CC2)NC[C@@H](C)Oc2ccccc2CC[C@H](C)NC1=O [Compound 807] | – | – | 17% | 31% | 41% | 18-23% | – |
| > 100 µM | > 100 µM | > 100 µM | > 100 µM | > 100 µM | – | – | CC(C)C[C@H]1NC(=O)[C@@H](C)N(C)C(=O)[C@H](C2CC2)NCCOc2cc(F)ccc2CC[C@H](C)NC1=O [Compound 822] | – | ≤ 100 nM | – | 6% | – | – | 93.0% |
| > 100 µM | > 100 µM | > 100 µM | > 100 µM | 69 µM | – | – | CC(C)C[C@H]1NC(=O)[C@@H](C)N(C)C(=O)[C@H](C2CC2)NCCOc2cc(F)ccc2CCCNC1=O [Compound 810] | – | ≤ 100 nM | – | – | – | – | 78.9% |
